Patent US20260138988A1, “Spiropyrrolidine Derived Antiviral Agents” (Enanta Pharmaceuticals, Inc., priority 2021, published 2026)
Read-outs that look alike come from different tables or passages of the source.

Columns and labels:
[1] = system: 229E human corona virus (hCoV); experiment: 229E live virus assay (MRC-5 cells, CPE, ATPlite readout); type: cell-based, hCoV-229E; conditions: Human coronavirus 229E, MRC5, 144 h, read-out: 229E EC50
SARS-CoV-2 3CL-protease = SARS-CoV-2 3CL-protease (Severe acute respiratory syndrome coronavirus 2, UniProt P0DTD1); experiment: SARS-CoV-2 3C-Like (3CL) Protease Fluorescence Assay (FRET); type: biochemical; conditions: test compounds 0-10 μM, duplicate
[2] = hCoV-229E in MRC-5 cells, MOI 0.05, 6 days at 34° C., ATPlite, run in duplicate
[3] = SARS-CoV-2 3CL-protease 10 nM, read-out: IC50
[4] = IC50, SARS-CoV-2 3CL-protease 10 nM

Molecule `C[C@H](NC(=O)c1ccc(F)cc1F)C(=O)N(C)[C@@H](CC(C)(C)C)C(=O)N1C[C@]2(C[C@H]1C#N)C(=O)Nc1ccccc12` [Example 154] has an EC50 [1, 2] of under 100 nM and an IC50 (SARS-CoV-2 3CL-protease; [3]) of under 100 nM.
`C[C@H](NC(=O)c1ccc(F)c(Cl)c1)C(=O)N(C)[C@@H](CC(C)(C)C)C(=O)N1C[C@]2(C[C@H]1C#N)C(=O)Nc1ccccc12` [Example 155] gave an EC50 [1, 2] of under 100 nM and an IC50 (SARS-CoV-2 3CL-protease; [3]) of under 100 nM.
Molecule `CC(C)C[C@@H](C(=O)N1C[C@]2(C[C@H]1C#N)C(=O)Nc1ccccc12)N(C)C(=O)[C@H](C)NC(=O)c1ccc(F)c(F)c1` [Example 165] has an EC50 [1, 2] of under 100 nM and an IC50 (SARS-CoV-2 3CL-protease; [3]) of under 100 nM.
`CC(C)C[C@@H](C(=O)N1C[C@]2(C[C@H]1C#N)C(=O)Nc1ccccc12)N(C)C(=O)[C@H](C)NC(=O)C(F)(F)C(F)(F)F` [Example 136] was tested, and the EC50 [1, 2] was under 100 nM and the IC50 (SARS-CoV-2 3CL-protease; [3]) was under 100 nM.
`CC(C)C[C@@H](C(=O)N1C[C@]2(C[C@H]1C#N)C(=O)Nc1ccccc12)N(C)C(=O)[C@@H]1CC[C@@H](c2ccccc2)N1C(C)C` [Example 162] was tested, and the EC50 [1, 2] was under 100 nM and the IC50 (SARS-CoV-2 3CL-protease; [3]) was under 100 nM.
In the case of `C[C@H](NC(=O)c1ccc(F)c(F)c1)C(=O)N(C)[C@@H](CC(C)(C)C)C(=O)N1C[C@]2(C[C@H]1C#N)C(=O)Nc1ccccc12` [Example 156], the EC50 [1, 2] is reported as under 100 nM and the IC50 (SARS-CoV-2 3CL-protease; [3]) is reported as under 100 nM.
In the case of `C[C@H](NC(=O)C(F)(F)C(F)(F)F)C(=O)N(C)[C@@H](CC(C)(C)C)C(=O)N1C[C@]2(C[C@H]1C#N)C(=O)Nc1ccccc12` [Example 133], the EC50 [1, 2] is reported as under 100 nM and the IC50 (SARS-CoV-2 3CL-protease; [4]) is reported as under 100 nM.
Molecule `CC(C)C[C@@H](C(=O)N1C[C@]2(C[C@H]1C#N)C(=O)Nc1ccccc12)N(C)C(=O)[C@H](C)NC(=O)C(F)(F)C(F)(F)C(F)(F)F` [Example 137] has an EC50 [1] of under 100 nM and an IC50 (SARS-CoV-2 3CL-protease; [4]) of under 100 nM.
In the case of `CC(C)C[C@@H](C(=O)N1C[C@]2(C[C@H]1C#N)C(=O)Nc1ccccc12)N(C)C(=O)[C@H](C)NC(=O)c1ccc(-c2ccc(F)cc2)cc1F` [Example 149], the EC50 [1, 2] is reported as under 100 nM and the IC50 (SARS-CoV-2 3CL-protease; [3]) is reported as under 100 nM.
With `CC(C)C[C@@H](C(=O)N1C[C@]2(C[C@H]1C#N)C(=O)Nc1ccccc12)N(C)C(=O)[C@@H]1CCCN1C` [Example 160] the EC50 [1, 2] was under 100 nM and the IC50 (SARS-CoV-2 3CL-protease; [3]) was under 100 nM.
`CC(C)C[C@@H](C(=O)N1C[C@]2(C[C@H]1C#N)C(=O)Nc1ccccc12)N(C)C(=O)[C@H](C)NC(=O)C(F)(F)F` [Example 135] was tested, and the EC50 [1, 2] was under 100 nM.
In the case of `Cc1cc(C(=O)N[C@@H](C)C(=O)N(C)[C@@H](CC(C)C)C(=O)N2C[C@]3(C[C@H]2C#N)C(=O)Nc2ccccc23)no1` [Example 166], the EC50 [1, 2] is reported as under 100 nM and the IC50 (SARS-CoV-2 3CL-protease; [3]) is reported as under 100 nM.
Molecule `CC(C)(C)C(NC(=O)OCc1ccccc1)C(=O)N1CCC[C@H]1C(=O)N1C[C@]2(C[C@H]1C#N)C(=O)Nc1ccccc12` (stereo partly drawn) [Example 55] has an EC50 [1] of over 1000 nM and an IC50 (SARS-CoV-2 3CL-protease; [4]) of 100 to 1000 nM.
Work on `CC(C)C[C@@H](C(=O)N1C[C@]2(C[C@H]1C#N)C(=O)Nc1ccccc12)N(C)C(=O)[C@H](C)NC(=O)c1ccc(F)cn1` [Example 164] yielded an EC50 [1, 2] of under 100 nM and an IC50 (SARS-CoV-2 3CL-protease; [3]) of under 100 nM.
`C[C@@H](C(=O)N(C)[C@@H](CC(C)(C)C)C(=O)N1C[C@]2(C[C@H]1C#N)C(=O)Nc1ccccc12)N1CCCC1=O` [Example 152] was tested, and the EC50 [1, 2] was 100 to 1000 nM and the IC50 (SARS-CoV-2 3CL-protease; [3]) was 100 to 1000 nM.
Molecule `CC(C)C[C@@H](C(=O)N1C[C@]2(C[C@H]1C#N)C(=O)Nc1ccccc12)N(C)C(=O)[C@H](C)NC(=O)c1ccccc1-c1ccc(C(F)(F)F)cc1` [Example 150] has an EC50 [1, 2] of 100 to 1000 nM and an IC50 (SARS-CoV-2 3CL-protease; [3]) of under 100 nM.
Work on `CC(C)C[C@H]1C(=O)N2C[C@]3(C[C@H]2C#N)C(=O)Nc2ccc(cc23)CCCCC[C@H](NC(=O)OC(C)(C)C)C(=O)N1C` [Example 373] yielded an EC50 [1, 2] of 100 to 1000 nM and an IC50 (SARS-CoV-2 3CL-protease; [3]) of under 100 nM.
For `[2H]C([2H])([2H])N(C(=O)[C@H](CC1CC1)NC(=O)c1ccc(F)cc1)[C@@H](CC1CC1)C(=O)N1C[C@]2(C[C@H]1C#N)C(=O)Nc1ccccc12` [Example 140], the EC50 [1, 2] was under 100 nM and the IC50 (SARS-CoV-2 3CL-protease; [3]) was under 100 nM.
`CC(C)C[C@@H](C(=O)N1C[C@]2(C[C@H]1C#N)C(=O)Nc1ccccc12)N(C)C(=O)[C@H](C)NC(=O)c1ccc(F)c(-c2ccc(F)cc2)c1` [Example 151] was tested, and the EC50 [1, 2] was 100 to 1000 nM and the IC50 (SARS-CoV-2 3CL-protease; [3]) was under 100 nM.
For `Cc1cccc(C)c1C(=O)N[C@@H](C)C(=O)N(C)[C@@H](CC(C)C)C(=O)N1C[C@]2(C[C@H]1C#N)C(=O)Nc1ccccc12` [Example 148], the EC50 [1, 2] was under 100 nM and the IC50 (SARS-CoV-2 3CL-protease; [3]) was under 100 nM.
`CC(C)OC(=O)N[C@H](C(=O)N(C)[C@@H](Cc1ccccc1)C(=O)N1C[C@]2(C[C@H]1C#N)C(=O)Nc1ccccc12)C(C)(C)C` [Example 31] showed an EC50 [1, 2] of under 100 nM.
For `CC(C)C[C@@H](C(=O)N1C[C@]2(C[C@H]1C#N)C(=O)Nc1ccccc12)N(C)C(=O)[C@@H]1CC[C@H](c2ccccc2)N1` [Example 159], the EC50 [1, 2] was 100 to 1000 nM and the IC50 (SARS-CoV-2 3CL-protease; [3]) was under 100 nM.
`CC(C)[C@H](NS(=O)(=O)c1ccc(F)cc1)C(=O)N(C)[C@@H](CC(C)(C)C)C(=O)N1C[C@]2(C[C@H]1C#N)C(=O)Nc1ccccc12` [Example 111] was tested, and the EC50 [1] was 100 to 1000 nM and the IC50 (SARS-CoV-2 3CL-protease; [4]) was under 100 nM.
`C[C@H](NC(=O)c1ccc(OC(F)(F)F)cc1)C(=O)N(C)[C@@H](CC(C)(C)C)C(=O)N1C[C@]2(C[C@H]1C#N)C(=O)Nc1ccccc12` [Example 153] was tested, and the EC50 [1, 2] was under 100 nM and the IC50 (SARS-CoV-2 3CL-protease; [3]) was under 100 nM.
`CC(C)[C@@H](NC(=O)OCc1ccccc1)C(=O)N[C@@H](CC(C)(C)C)C(=O)N1C[C@]2(C[C@H]1C#N)C(=O)Nc1ccccc12` [Example 87] was tested, and the EC50 [1] was over 1000 nM.
`Cc1ncc(C(=O)N[C@@H](C)C(=O)N(C)[C@@H](CC(C)C)C(=O)N2C[C@]3(C[C@H]2C#N)C(=O)Nc2ccccc23)s1` [Example 163] gave an EC50 [1, 2] of under 100 nM and an IC50 (SARS-CoV-2 3CL-protease; [3]) of under 100 nM.
For `CC(C)C[C@@H](C(=O)N1C[C@]2(C[C@H]1C#N)C(=O)Nc1ccccc12)N(C)C(=O)[C@@H]1CC[C@@H](c2ccccc2)N1` [Example 158], the EC50 [1, 2] was under 100 nM and the IC50 (SARS-CoV-2 3CL-protease; [3]) was under 100 nM.
`C[C@@H](C(=O)N(C)[C@@H](CC(C)(C)C)C(=O)N1C[C@]2(C[C@H]1C#N)C(=O)Nc1ccccc12)n1cc(C2CC2)nn1` [Example 157] was tested, and the EC50 [1, 2] was under 100 nM and the IC50 (SARS-CoV-2 3CL-protease; [3]) was under 100 nM.
In the case of `CC[C@H](NC(=O)C1(F)C(F)(F)C1(F)F)C(=O)N(C)[C@@H](CC(C)C)C(=O)N1C[C@]2(C[C@H]1C#N)C(=O)Nc1ccccc12` [Example 196], the IC50 (SARS-CoV-2 3CL-protease; [3]) is reported as under 100 nM.
Molecule `C[C@H](NC(=O)C(F)(F)C(F)(F)F)C(=O)N(C)[C@@H](C)C(=O)N1C[C@]2(C[C@H]1C#N)C(=O)Nc1ccccc12` [Example 207] has an IC50 (SARS-CoV-2 3CL-protease; [3]) of under 100 nM.
Work on `CC(C)CC(NC(=O)C(F)(F)F)C(=O)N1CC[C@H](c2ccccc2)[C@H]1C(=O)N1C[C@]2(C[C@H]1C#N)C(=O)Nc1ccccc12` (stereo partly drawn) [Example 345] yielded an IC50 (SARS-CoV-2 3CL-protease; [3]) of under 100 nM.
In the case of `C[C@@H]1CC[C@@H](C(=O)N(C)[C@@H](CC(C)(C)C)C(=O)N2C[C@]3(C[C@H]2C#N)C(=O)Nc2ccccc23)N1C` [Example 239], the IC50 (SARS-CoV-2 3CL-protease; [3]) is reported as under 100 nM.
`CC(C)C[C@@H](C(=O)N1C[C@]2(C[C@H]1C#N)C(=O)Nc1ccccc12)N(C)C(=O)[C@H](C)NC(=O)C1(F)CC1` [Example 296] gave an IC50 (SARS-CoV-2 3CL-protease; [3]) of under 100 nM.
Molecule `CC(C)C[C@@H](C(=O)N1C[C@]2(C[C@H]1C#N)C(=O)Nc1ccccc12)N(C)C(=O)[C@@H]1[C@@H]2C[C@@H]2CN1C1CC1` [Example 252] has an IC50 (SARS-CoV-2 3CL-protease; [3]) of 100 to 1000 nM.
With `CC(C)N1[C@H](C(F)(F)F)CC[C@H]1C(=O)N(C)[C@@H](CC(C)(C)C)C(=O)N1C[C@]2(C[C@H]1C#N)C(=O)Nc1ccccc12` [Example 236] the IC50 (SARS-CoV-2 3CL-protease; [3]) was 100 to 1000 nM.
Work on `CC(C)N1c2ccccc2C[C@H]1C(=O)N(C)[C@@H](CC(C)(C)C)C(=O)N1C[C@]2(C[C@H]1C#N)C(=O)Nc1ccccc12` [Example 184] yielded an IC50 (SARS-CoV-2 3CL-protease; [3]) of under 100 nM.
For `CC(C)C[C@@H](C(=O)N1C[C@]2(C[C@H]1C#N)C(=O)Nc1ccccc12)N(C)C(=O)[C@@H]1CCCN1C(C)C` [Example 161], the EC50 [1, 2] was under 100 nM and the IC50 (SARS-CoV-2 3CL-protease; [3]) was under 100 nM.
For `CC(C)C[C@@H](C(=O)N1C[C@]2(C[C@H]1C#N)C(=O)Nc1ccccc12)N(C)C(=O)[C@H](C)NC(=O)C1(F)CC2(CCC2)C1` [Example 141], the IC50 (SARS-CoV-2 3CL-protease; [3]) was under 100 nM.
Work on `CC(C)C[C@@H](C(=O)N1C[C@]2(C[C@H]1C#N)C(=O)Nc1ccccc12)N(C)C(=O)[C@H](C)NC(=O)c1cccc(-c2ccc(F)cc2F)c1` [Example 146] yielded an IC50 (SARS-CoV-2 3CL-protease; [3]) of under 100 nM.
In the case of `CC(C)(C)C[C@H](NC(=O)[C@H](Cc1ccccc1)Nc1ccc(F)cc1)C(=O)N1C[C@]2(C[C@H]1C#N)C(=O)Nc1ccccc12` [Example 339], the IC50 (SARS-CoV-2 3CL-protease; [3]) is reported as under 100 nM.
Work on `CC(C)(C)C[C@H](NC(=O)[C@H](CC1CC1)NC(=O)C1CCC2(CC1)CC2)C(=O)N1C[C@]2(C[C@H]1C#N)C(=O)Nc1ccccc12` [Example 322] yielded an IC50 (SARS-CoV-2 3CL-protease; [3]) of under 100 nM.
With `CC(C)C[C@@H](C(=O)N1C[C@]2(C[C@H]1C#N)C(=O)Nc1ccccc12)N(C)C(=O)[C@H](C)NC(=O)C(F)(F)C1CC1` [Example 285] the IC50 (SARS-CoV-2 3CL-protease; [3]) was under 100 nM.
`CC(C)C[C@@H](C(=O)N1C[C@]2(C[C@H]1C#N)C(=O)Nc1ccccc12)N(C)C(=O)[C@@H]1CC2(CC2)CN1C(C)C` [Example 241] was tested, and the IC50 (SARS-CoV-2 3CL-protease; [3]) was under 100 nM.
